{
  "source": "patent US11629192B2",
  "about": "“Methods and pharmaceutical compositions for the treatment of diseases mediated by the NRP-1/OBR complex signaling pathway” (INSERM (Institut National de la Sante et de la Recherche …, priority 2014, dated 2023)",
  "key": {"NRP-1/OBR complex [1]": {"test_system": "NRP-1/OBR complex", "test": "NRP-1/OBR complex by PLA in skin fibroblast of healthy donor and anorexic patient", "assay_type": "cell-based, human", "conditions": "for NRP-1/OBR complex formation: skin fibroblasts of healthy donor and anorexic patient, treated during 4 hours", "experimental": "FIG. 3A-B. NRP1/OBR complex formation inhibited by two alosteric inhibitors of Protein-kinase CK2 in skin fibroblast of healthy donor (A) and anorexic patient (B). The NRP-1/OBR complex (Red dot) is detected by de Proximity Ligation assay technology (PLA or Ouolink). Cells were grown in DMEM plus 20% of fetal bovine serum+Sodium pyruvate+LGiutamate and penicillin and streptomycin. Cells were treated or not with D3.1 or M4 CK2 inhibitor during 4 hours. Cells were washed with PBS1X and fixed with iced acetone and rehydrated with PBS before blockage and staining with a Goat ant-Human leptin and Rabbit anti-Neuropilin-1 and Mouse anti-Leptin receptor OBR. Leptin was detected using a donkey and Goat Alexa 488 (Green) and NRP-1 and OBR with anti-Rabbit-PLA minus and antimouse-PLA plus as described in the link indicated above. The NRP-1/OBR complex is inhibited by D3.1 and M4 treatment."}, "NRP-1/OBR complex [2]": {"test_system": "NRP-1/OBR complex", "test": "NRP-1/OBR complex detection by Duolink Proximity Ligation Assay in MDA-MB-231 cells", "assay_type": "cell-based, human", "conditions": "for formation and nuclear translocation of the NRP-1/OBR complex: MDA-MB-231 stimulated with Leptin (10 nM), CK2 inhibitor treatment", "description": "FIG. 2A-E. NRP-1/OBR complex is dependent of the activity of Protein-kinase CK2: NRP-1 and OBR are both a substrate of the holoenzyme CK2: In vitro phosphorylation of the recombinant full length NRP-1 (A) and the length OBR (B) indicate that the CK2β subunit is indispensable for the CK2 activity. C. Detection of the NRP-1 and CK2β subunit interaction: By using the PLA technology, the in vitro data showing the implication of CK2β subunit in the phosphorylation of NRP-1 by CK2 are in part confirmed in MDA-MB231 cells by the detection of CK2β interaction with NRP-1 as indicated by the duolink (white dot). […] E. inhibition of the NRP-1/OBR by the simultaneous CK2α and CK2α′ expression silencing using siRNA that confirms the CK2 implication In the NRP-1/OBR complex formation and nuclear localization.\nTo confirm a direct association of NRP-1 and Leptin in breast cancer cell migration, we investigated the NRP-1 and OBR interaction by using proximity ligation assay technology (Duolink) in MDA-MB-231 and in T47D-NRP-1. Since OBR is a member of the class I cytokine receptor family, we asked the question if the formation of the complex NRP-1/OBR can or not be modulated by Leptin. This question was investigated endogenously in MDA-MB-231 or by transient transfection of T47D either by NRP-1 or by NRP-1/OBR or OBR alone. After 24 h of transfection, cells were serum starved for 16 h then stimulated with Leptin (10 nM). After 3 h, the stimulation was stopped by removing the medium, cells was first washed then fixed and NRP-1/OBR complex formation was analyzed by Duolink in situ Proximity Ligation Assay (PLA) and by confocal microscopy detection. Co-localization was analyzed using JACoP (ImageJ; National Institutes of Health, Bethesda, Md.) software. Co-localization between molecules was indicated by a positive Pearson coefficient (r). First, the expression of NRP-1 in transfected T47D was confirmed by RT-PCR. NRP-1 forms a complex with endogenous OBR as it is shown by the Duolink detection as red dot in cells transfected with pcDNA3-NRP-1. The Duolink signal increased in the T47D co-transfected with NRP-1 and OBR. The Duolink signals in T47D transfected with either the empty vector pcDNA3 or with the OBR expressing vector were similar. The same results are observed in MDA-MB-231. […] By using subcellular protein fractionation kit, NRP-1 and OBR localization in cytoplasmic (C), membrane (M), in the total nuclear extract (N) or in soluble nuclear (SN) and chromatin bound fractions (CB) was analyzed by western blotting either in total lysate or after coimmunoprecipitation. The purity of fraction was assessed by the detection of specific proteins of each fraction such as Hsp90 for the C fraction, SP1 and HDAC2 for the SN and CB fractions and specifically the Calreticulin for endoplasmic reticulum (ER) in order to detect any contamination by the ER membrane fraction in the nuclear fractions. As suspected, OBR was coimmunoprecipitated with NRP-1 in the cytoplasmic (C) and in the nuclear fraction (N) of MDA-MB-231 but not in T47D. As well as Phosphorylated OBR (P-OBR), NRP-1 was detected in cytoplasmic fraction and in nuclear fractions SN and CB of 16 h serum starved MDA-MB-231 and stimulated with 10 nM of Leptin during 3 h at 37° C. The P-OBR and NRP-1 coimmunoprecipitated in the nuclear fractions, increasing with Leptin stimulation as observed by confocal microscopy.\nAs attempted, NRP-1/OBR complex was detected by confocal microscopy after by Duolink in situ Proximity Ligation Assay (PLA) in MDA-MB-231 stimulated with Leptin (10 nM). This detection was also observed in MDA-MB-231-shGFP but very less in MDA-MB-231-shNRP-1 confirming NRP-1 association with OBR."}, "P-NRP-1": {"test_system": "P-NRP-1", "test": "NRP-1 (P-NRP-1) and OBR phosphorylation in MDA-MB-231, immunostaining / coimmunoprecipitation", "assay_type": "cell-based, human", "conditions": "for NRP-1 and OBR phosphorylation: inhibition of CK2 by chemical compounds", "description": "Beside the modulation of the NRP-1/OBR complex formation by Leptin and OBR phosphorylation, we postulated a possible phosphorylation of NRP-1 that can regulate the translocation of the complex to the nucleus. Two putative phosphorylation sites of NRP-1 have been reported with no more investigation. The first one at the extracellular B domain as reported by Shintani et al in 2009 with no antibody available and the second one at the Threonine 916 located in the cytoplasmic domain as it was reported by Kyle et al in 2011. Since a specific antibody against P-NRP-1 at the T916 was available, we investigated by coimmunoprecipitation the detection of P-NRP-1 in MDA-MB-231 after serum starvation and stimulation by Leptin (10 nM). […] To confirm this phosphorylation state, we investigated the possible implication of a Serine/threonine Kinase CK2 using one of its first chemical inhibitor (DRB). In serum starved condition, P-NRP-1 was detected as polarized spot in the cytoplasm and the nucleus of MDA-MB-231. […] The inhibition was specific since, in stimulated condition combined with DMSO at the same dilution of DRB, we were able to observe a diffuse nuclear P-NRP-1 staining."}, "[3]": {"test_system": "OBR and STAT3 phosphorylation", "test": "OBR and STAT3 phosphorylation in cytoplasmic and nuclear fractions", "assay_type": "cell-based", "description": "Since both NRP-1/OBR complex formation and NRP-1 phosphorylation were abolished by CK2 inhibition, we supposed that OBR signaling pathway could be also affected by CK2 inhibition."}, "MDA-MB-231 cells": {"test_system": "MDA-MB-231 cells", "test": "MDA-MB-231 cell migration / transmigration through insert", "assay_type": "cell-based, human", "conditions": "10 μg/ml of Bevacizumab", "description": "(§1) FIG. 5. NRP-1, OBR and leptin interactions confirmation using a Bio-Layer Interferometry (BLI) technology (fortebio.com/bli-technology.html): A-Leptin (OB) interaction to OBR is used as a positive control. Human neuropilin-1 (hNRP-1) interact with human OBR with a high affinity and specifically with human leptin (hOB) but not with murine leptin (mOB). VEGF165 binding to hNRP-1 is used as a positive control. B-Leptin and Avastin association increases MDA-MB231 cells transmigration through […] pore Insert. Avastin treatment may prevent a negative feedback control by VEGF of the pro-angiogenic signaling pathway of Leptin. VEGF binds to OBR which confirms our hypothesis that should be more investigated.\nFirst MBA-MB-231 and T47D breast cancer cells line were selected for their high and undetectable NRP-1 expression respectively and the expression of Leptin receptor (OBR). In order to investigate NRP-1 and Leptin association in breast cancer cell line migration, we proceeded to NRP-1 expression silencing in MDA-MB-231 using either siRNA or shRNA approaches or NRP-1 overexpression in T47D. […] In contrast Leptin induced MDA-MB-231 migration that was decreased in siNRP-1 conditions. The in vitro data were confirmed in vivo by MDA-MB-231 and T47D xenografts in Nude mice. Modulation of NRP-1 expression either by shRNA silencing in MDA-MB-231 or by overexpression in T47D induced an increase of proliferation and a decrease of lymph node infiltration by MDA-MB-231-shNRP-1 and a decrease of proliferation and an increase of lymph node infiltration by T47D-NRP-1-RFP in mice treated with Leptin.\nLeptin induced in vitro MDA-MB-231 migration that was decreased by NRP-1 repression using siRNA. Lel Xu et al have reported a direct evidence of NRP-1 up-regulation in tumors treated by anti-VEGF (Bevacizumab). […] This observation can be a first explanation of breast cancer therapy failure (increase of Progression survival while decreasing overall survival) by Bevacizumad and that was revoked by the FDA (Food and Drugs Administration, US)."}, "[4]": {"target": "Human neuropilin-1 (hNRP-1) (Homo sapiens, UniProt O14786)", "test": "Bio-Layer Interferometry (BLI) interaction with hNRP-1", "assay_type": "binding", "description": "as §1"}},
  "note": "“Also recorded” adds a separate entry of the source.",
  "data": [
    {"molecule": "O=C(O)c1cccc(Nc2nc(-c3cccc([N+](=O)[O-])c3)cs2)c1", "note": "[D3.1]", "values": [
      {"measurement": "NRP-1/OBR complex formation", "setting": "NRP-1/OBR complex [1]", "result": "inhibited"},
      {"measurement": "efficiency of NRP-1/OBR complex inhibition, D3.1 compared with M4", "setting": "NRP-1/OBR complex [1]; skin fibroblasts, 4 hours", "result": "seems more efficient"}
    ]},
    {"molecule": "Brc1c(Br)c(Br)c2[nH]nnc2c1Br", "note": "[TBB, 4,5,6,7-tetrabromobenzotriazole]", "values": [
      {"measurement": "formation and nuclear translocation of the NRP-1/OBR complex", "setting": "NRP-1/OBR complex [2]", "result": "prevented; also recorded: decrease of NRP-1/OBR complex formation"},
      {"measurement": "NRP-1 and OBR phosphorylation", "setting": "P-NRP-1", "result": "prevented"},
      {"measurement": "Leptin induced OBR and STAT3 phosphorylation increase, effect of inhibitor", "setting": "[3]", "result": "inhibited by TBB treatment in a dose dependent manner"}
    ]},
    {"molecule": "Bevacizumab: anti-VEGF antibody (rhuMab VEGF, Avastin) [reference compound]", "values": [
      {"measurement": "MDA-MB-231 migration", "setting": "MDA-MB-231 cells", "result": "induced"}
    ]},
    {"molecule": "CCC(=C/[C@H](C)C/C=C/C(C)=C/[C@@H](C)C(=O)[C@@H](C)[C@H](O)[C@@H](C)C/C(C)=C/C(=O)O)/C=C/[C@@H]1OC(=O)C=C[C@@H]1C", "note": "[leptomycin B]", "values": [
      {"measurement": "NRP-1/OBR complex detection by Duolink in the nucleus", "setting": "NRP-1/OBR complex [2]; MDA-MB-231 co-treated with Leptin and leptomycin B vs Leptin alone", "result": "increased"}
    ]},
    {"molecule": "O=[N+]([O-])c1ccc2c(/N=N/c3c(O)ccc4ccccc34)c(O)cc(S(=O)(=O)O)c2c1", "note": "[M4, reference compound]", "values": [
      {"measurement": "NRP-1/OBR complex formation", "setting": "NRP-1/OBR complex [1]", "result": "inhibited"}
    ]},
    {"molecule": "OC[C@H]1O[C@@H](n2cnc3cc(Cl)c(Cl)cc32)[C@H](O)[C@@H]1O", "note": "[DRB, 5,6-dichloro-1-P-D-ribofuranosylbenzimidazole]", "values": [
      {"measurement": "formation and nuclear translocation of the NRP-1/OBR complex", "setting": "NRP-1/OBR complex [2]", "result": "prevented"},
      {"measurement": "formation and nuclear translocation of the NRP-1/OBR complex", "setting": "NRP-1/OBR complex [2]; listed as DBB", "result": "decrease of NRP-1/OBR complex formation"},
      {"measurement": "P-NRP-1 staining (diffuse nuclear staining and polarized spot)", "setting": "P-NRP-1; Leptin-stimulated (10 nM) MDA-MB-231, DRB treatment (5004)", "result": "inhibition of the diffuse nuclear P-NRP-1 staining but also to the decrease of P-NRP-1 polarized spot"},
      {"measurement": "NRP-1 and OBR phosphorylation", "setting": "P-NRP-1", "result": "prevented"}
    ]},
    {"molecule": "O=C(O)c1ccc2c(c1)nc(Nc1cccc(Cl)c1)c1ccncc12", "note": "[CX4945]", "values": [
      {"measurement": "NRP-1/OBR complex detection by PLA and its nuclear localization", "setting": "NRP-1/OBR complex [2]; MDA-MB231, CX4945 (504) during 4 h, leptin stimulation (10 nM)", "result": "decrease in NRP-1/OBR complex detection by PLA (red dot) and its nuclear localization"},
      {"measurement": "formation and nuclear translocation of the NRP-1/OBR complex", "setting": "NRP-1/OBR complex [2]", "result": "prevented; also recorded: the same results obtained with TBB and DRB inhibitors"},
      {"measurement": "NRP-1 and OBR phosphorylation", "setting": "P-NRP-1", "result": "prevented"}
    ]},
    {"molecule": "mOB: murine leptin (protein, UniProt P41160 22-167, looked up) Leptin: VPIQKVQDDTKTLIKTIVTRINDISHTQSVSAKQRVTGLDFIPGLHPILSLSKMDQTLAVYQQVLTSLPSQNVLQIANDLENLRDLLHLLAFSKSCSLPQTSGLQKPESLDGVLEASLYSTEVVALSRLQGSLQDILQQLDVSPEC", "values": [
      {"measurement": "interaction with hNRP-1", "setting": "[4]", "result": "not"}
    ]}
  ]
}
